In the Kinase Knowledgebase extract (Sharma et al. 2016) one finds IC50 data, which are given here for 92 compounds.

Values after ≈ are worked out from the molar mass of the structure shown.

In the test the target is EGFR (UniProt P00533).
Chain of EGFR (P00533 whole entry, looked up): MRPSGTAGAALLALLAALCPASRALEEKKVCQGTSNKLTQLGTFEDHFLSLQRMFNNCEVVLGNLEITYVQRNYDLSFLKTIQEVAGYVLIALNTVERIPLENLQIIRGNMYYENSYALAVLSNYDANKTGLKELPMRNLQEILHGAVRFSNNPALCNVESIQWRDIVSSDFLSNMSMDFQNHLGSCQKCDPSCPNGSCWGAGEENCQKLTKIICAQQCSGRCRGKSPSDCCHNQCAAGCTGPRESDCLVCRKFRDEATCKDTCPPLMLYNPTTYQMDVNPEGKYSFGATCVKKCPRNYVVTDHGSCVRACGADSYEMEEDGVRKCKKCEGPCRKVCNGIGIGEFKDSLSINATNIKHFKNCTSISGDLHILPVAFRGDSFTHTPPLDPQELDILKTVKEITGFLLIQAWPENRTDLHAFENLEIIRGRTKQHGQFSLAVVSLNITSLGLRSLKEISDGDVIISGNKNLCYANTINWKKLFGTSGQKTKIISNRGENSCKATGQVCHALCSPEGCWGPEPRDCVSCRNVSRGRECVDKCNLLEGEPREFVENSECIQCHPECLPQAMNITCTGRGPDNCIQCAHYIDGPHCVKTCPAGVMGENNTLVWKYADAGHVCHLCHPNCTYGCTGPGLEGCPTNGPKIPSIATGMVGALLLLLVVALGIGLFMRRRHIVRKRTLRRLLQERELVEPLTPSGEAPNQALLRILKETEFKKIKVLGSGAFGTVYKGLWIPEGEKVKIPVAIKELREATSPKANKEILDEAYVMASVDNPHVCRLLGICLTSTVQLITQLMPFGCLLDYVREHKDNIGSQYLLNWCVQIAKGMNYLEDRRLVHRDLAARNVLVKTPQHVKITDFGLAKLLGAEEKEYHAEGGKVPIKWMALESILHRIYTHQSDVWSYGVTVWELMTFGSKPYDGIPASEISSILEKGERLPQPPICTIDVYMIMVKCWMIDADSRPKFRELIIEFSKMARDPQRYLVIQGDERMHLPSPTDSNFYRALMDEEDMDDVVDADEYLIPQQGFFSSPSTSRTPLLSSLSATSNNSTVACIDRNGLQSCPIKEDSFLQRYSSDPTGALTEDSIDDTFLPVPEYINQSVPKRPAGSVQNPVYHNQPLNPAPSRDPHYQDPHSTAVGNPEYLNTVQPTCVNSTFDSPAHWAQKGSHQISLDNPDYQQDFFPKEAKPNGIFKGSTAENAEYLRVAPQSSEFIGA

As a reminder, the IC50 is the midpoint of a concentration-inhibition curve. Low values mean inhibition by little substance, high ones a need for much substance. Consider `COc1cc(Nc2ncnc(-c3ccnc(NCCCN)c3)n2)cc(OC)c1OC`, for which the IC50 was > 4.5 µg/mL.

`COc1ccc(Nc2ncnc(Nc3cc(Cl)cc(Cl)c3)n2)cc1OC` returned an IC50 of 2.4 to 3.5 µg/mL (≈ 6.12 to 8.92 µM).

In the case of `COc1cc(Nc2ncnc(-n3c(OCc4ccccn4)nc4ccccc43)n2)cc(OC)c1OC`, the IC50 was > 4.5 µg/mL.

As for `COc1cc(Nc2ncnc(-c3cccnc3NCc3ccc(F)cc3)n2)cc(OC)c1OCCN1CCOCC1`, the IC50 is 2.4 to 3.5 µg/mL (≈ 4.27 to 6.23 µM).

`COc1cc(Nc2ncnc(-c3cccnc3NCc3ccccc3OC(F)(F)F)n2)cc(OC)c1OC`: the 50% inhibitory concentration (IC50) is > 4.5 µg/mL.

With `COc1cc(Nc2ncnc(-n3c(Nc4cccc5cccnc45)nc4ccccc43)n2)cc(OC)c1OC`, the IC50 was > 4.5 µg/mL.

As for `NC(=O)c1ccc(Nc2ncnc(-n3c(=O)[nH]c4ccccc43)n2)cc1`, the IC50 is > 4.5 µg/mL.

Consider `COC(=O)c1cc(Nc2ncnc(Nc3cc(-c4ccco4)n[nH]3)n2)cc(C(=O)OC)c1`, for which the IC50 was > 4.5 µg/mL.

In the case of `CC(C)(C)c1ccc(Nc2ncnc(-n3c(N)nc4ccccc43)n2)cc1`, the IC50 was > 4.5 µg/mL.

Consider `Cc1ccc2c(c1)CCCN2c1ncnc(Nc2cc[nH]n2)n1`, for which the IC50 fell in the range of 0.4 to 2.4 µg/mL (≈ 1.3 to 7.81 µM).

As to `COC(=O)c1ccc(-c2cc(Nc3ncnc(Nc4cccc(CC(N)=O)c4)n3)[nH]n2)cc1`, the IC50 lay within 3.5 to 4.5 µg/mL (≈ 7.87 to 10.1 µM).

Regarding `COc1ccc(Nc2ncnc(Nc3ccc(OC)c(OC)c3)n2)cc1OC`, the IC50 is > 4.5 µg/mL.

The compound `COc1cc(Nc2ncnc(-n3c(=O)[nH]c4ccccc43)n2)cc(OC)c1OC` came in with an IC50 of 3.5 to 4.5 µg/mL (≈ 8.87 to 11.4 µM).

Regarding `CCOc1cccc(Nc2ncnc(Nc3ccc(OC)c(OC)c3)n2)c1`, the IC50 was > 4.5 µg/mL.

`COc1ccc(N(C)c2ncnc(-n3c(N)nc4ccccc43)n2)cc1`: the IC50 is > 4.5 µg/mL.

Turning to `COc1ccc(Nc2ncnc(-n3cccc3)n2)c(OC)c1`, the IC50 was > 4.5 µg/mL.

As to `COc1cc(Nc2ncnc(-n3c(=O)[nH]c4ccccc43)n2)cc(OCCN2CCOCC2)c1OC`, the IC50 was > 4.5 µg/mL.

Consider `CN(c1cccc(Cl)c1)c1ncnc(Nc2ccc3c(cnn3C)c2)n1`, for which the IC50 was < 0.4 µg/mL.

With `CCOC(=O)C(Cc1cccc(Nc2ncnc(Nc3cc(-c4ccco4)n[nH]3)n2)c1)(NC(C)=O)C(=O)OCC`, the IC50 is > 4.5 µg/mL.

`c1ccc(Cn2ncc3cc(Nc4ncnc(NCC5CCCCC5)n4)ccc32)cc1`: the IC50 was > 4.5 µg/mL.

On to `c1coc(-c2cc(Nc3ncnc(Nc4ccc(-c5csnn5)cc4)n3)n[nH]2)c1`, for which the IC50 fell in the range of 0.4 to 2.4 µg/mL (≈ 0.991 to 5.95 µM).

`Cc1cccc(Nc2ncnc(Nc3ccc4c(cnn4Cc4ccccc4)c3)n2)c1`: the IC50 is < 0.4 µg/mL.

As for `COc1cc(Nc2ncnc(Nc3ccc(C(C)C)cc3)n2)cc(OC)c1OC`, the IC50 is > 4.5 µg/mL.

`O=c1[nH]c2ccccc2n1-c1ncnc(Nc2cccc(NS(=O)(=O)c3ccc([N+](=O)[O-])cc3)c2)n1` gave an IC50 of 0.4 to 2.4 µg/mL (≈ 0.793 to 4.76 µM).

The compound `COc1cc(Nc2ncnc(Nc3cc(-c4cccc(C)c4)n[nH]3)n2)cc(OC)c1OC` had an IC50 of 0.4 to 2.4 µg/mL (≈ 0.923 to 5.54 µM).

`COc1cc(Nc2ncnc(-n3nc(-c4ccccc4)cc3N)n2)cc(OC)c1OC`: the IC50 was > 4.5 µg/mL.

As for `COC(=O)c1cccc(Nc2ncnc(-n3c(NCc4ccc(OC)cc4)nc4ccccc43)n2)c1`, the IC50 is > 4.5 µg/mL.

As for `COc1ccc(CNc2nc3ccccc3n2-c2ncnc(Nc3cc(OC)c(OC)c(OC)c3)n2)cc1`, the IC50 was > 4.5 µg/mL.

For `O=c1[nH]c2ccccc2n1-c1ncnc(Nc2cccc3ccccc23)n1`, the IC50 was > 4.5 µg/mL.

On to `Fc1ccc(CNc2ncnc(Nc3cc(-c4ccco4)n[nH]3)n2)cc1`, for which the IC50 was 3.5 to 4.5 µg/mL (≈ 9.96 to 12.8 µM).

On to `COc1cc(Nc2ncnc(Nc3ccc(C)cc3)n2)cc(OC)c1OC`, for which the IC50 is < 0.4 µg/mL.

As for `COC(=O)c1ccc(-c2cc(Nc3ncnc(Nc4cccc(C(N)=O)c4)n3)[nH]n2)cc1`, the IC50 is > 4.5 µg/mL.

With `CN(c1ccc2c(cnn2Cc2ccccc2)c1)c1ncnc(Nc2cccc(Br)c2)n1`, the IC50 is < 0.4 µg/mL.

In the case of `COc1cc(Nc2ncnc(N(C)c3cccc(Cl)c3)n2)cc(OC)c1`, the concentration for half-maximal inhibition (IC50) was < 0.4 µg/mL.

Take `COc1cc(Nc2ncnc(-n3ncc4ccccc43)n2)cc(OC)c1OC`: the IC50 was > 4.5 µg/mL.

As to `COC(=O)Cc1cccc(Nc2ncnc(-n3c(NCc4ccccn4)nc4ccccc43)n2)c1`, the IC50 was > 4.5 µg/mL.

On to `COC(=O)c1ccc(-c2cc(Nc3ncnc(NCc4ccccc4F)n3)[nH]n2)cc1`, for which the IC50 is > 4.5 µg/mL.

As for `O=C(Nc1ccc(Nc2ncnc(-n3c(=O)[nH]c4ccccc43)n2)cc1)O[C@@H]1CCOC1`, the IC50 is > 4.5 µg/mL.

On to `COc1cc(Nc2ncnc(-n3c(N)nc4ccccc43)n2)cc(OC)c1`, for which the IC50 is > 4.5 µg/mL.

As for `COc1cc(Nc2ncnc(Nc3ccc4c(c3)OCO4)n2)cc(OC)c1OC`, the IC50 lay in the range of 0.4 to 2.4 µg/mL (≈ 1.01 to 6.04 µM).

With `COc1cc(Nc2ncnc(-n3ccc4cc(F)ccc43)n2)cc(OC)c1OC`, the 50% inhibitory concentration (IC50) is > 4.5 µg/mL.

Compound `CC(C)Nc1ncccc1-c1ncnc(Nc2cccc(CO)c2)n1` came in with an IC50 of 3.5 to 4.5 µg/mL (≈ 10.4 to 13.4 µM).

For `Cc1ccc2c(c1)CCCN2c1ncnc(NCC2CCCO2)n1` (configuration not stated), the IC50 was > 4.5 µg/mL.

Turning to `COc1cc(Nc2ncnc(Nc3[nH]ncc3-c3ccccc3)n2)cc(OC)c1OC`, the IC50 was > 4.5 µg/mL.

In the case of `CCN(CC)CCOc1cc(Nc2ncnc(-n3c(N)nc4ccccc43)n2)ccc1OC`, the IC50 was > 4.5 µg/mL.

Consider `COc1cc(Nc2ncnc(-n3c(N[C@H](CO)c4ccccc4)nc4ccccc43)n2)cc(OC)c1OC`, for which the IC50 is > 4.5 µg/mL.

Regarding `COc1cc(Nc2ncnc(-n3ccc4cc(OCc5ccccc5)ccc43)n2)cc(OC)c1OC`, the IC50 was > 4.5 µg/mL.

As for `COc1cc(Nc2ncnc(-n3c(N(C)C)nc4ccccc43)n2)cc(OC)c1OC`, the IC50 was > 4.5 µg/mL.

For `CN(c1cccc(Cl)c1)c1ncnc(N[C@@H]2CCN(Cc3ccccc3)C2)n1`, the IC50 is > 4.5 µg/mL.

For the compound `COc1ccc(CNc2nc3ccccc3n2-c2ncnc(Nc3cccc(C(=O)O)c3)n2)cc1`, the IC50 is > 4.5 µg/mL.

Consider `C#Cc1cccc(Nc2ncnc(Nc3cc(-c4ccccc4)n[nH]3)n2)c1`, for which the IC50 lay in the range of 0.4 to 2.4 µg/mL (≈ 1.13 to 6.79 µM).

With `COc1cc(Nc2nc(F)nc(Nc3cccc(OC(F)(F)F)c3)n2)cc(OC)c1OC`, the IC50 was < 0.4 µg/mL.

For `c1csc(-c2ncnc(Nc3ccncc3)n2)c1`, the IC50 is > 4.5 µg/mL.

Regarding `COc1cccc(Nc2ncnc(-c3cccs3)n2)n1`, the IC50 is > 4.5 µg/mL.

Regarding `FC(F)C(F)(F)Oc1cccc(Nc2ncnc(-c3ccnc(Cl)c3)n2)c1`, the IC50 is > 4.5 µg/mL.

With `CN(C)CCNc1ncnc(Nc2ccc3c(cnn3Cc3ccccc3)c2)n1`, the IC50 lay in the range of 0.4 to 2.4 µg/mL (≈ 1.03 to 6.18 µM).

In the case of `CCOc1cccc(Nc2ncnc(N3CCCc4cc(C)ccc43)n2)c1`, the IC50 was < 0.4 µg/mL.

For `CN(c1cccc(Cl)c1)c1ncnc(N(C)c2cccc(Cl)c2)n1`, the IC50 lay within 0.4 to 2.4 µg/mL (≈ 1.11 to 6.66 µM).

With `COc1cccc(Nc2ncnc(-c3ccccc3)n2)c1`, the IC50 was > 4.5 µg/mL.

On to `O=c1[nH]c2ccccc2n1-c1ncnc(Nc2ccc3ncccc3c2)n1`, for which the IC50 lay within 3.5 to 4.5 µg/mL (≈ 9.85 to 12.7 µM).

Take `COc1cc(Nc2ncnc(-n3c(N)nc4cc(C(F)(F)F)ccc43)n2)cc(OC)c1OC.COc1cc(Nc2ncnc(-n3c(N)nc4ccc(C(F)(F)F)cc43)n2)cc(OC)c1OC`: the IC50 is > 4.5 µg/mL.

`COc1cc(Nc2ncnc(-n3c(NCc4cccc(Br)c4)nc4ccccc43)n2)cc(OC)c1OC` registered an IC50 of 3.5 to 4.5 µg/mL (≈ 6.22 to 8 µM).

On to `O=C(O)CCc1cccc(Nc2ncnc(Nc3cc(-c4ccco4)[nH]n3)n2)c1`, for which the IC50 is < 0.4 µg/mL.

`COc1cc(Nc2ncnc(Nc3cccc(C(C)=O)c3)n2)cc(OC)c1OC` displayed an IC50 of 0.4 to 2.4 µg/mL (≈ 1.01 to 6.07 µM).

`COc1cc(Nc2ncnc(N(c3ccc(Cl)cc3)c3nc4ccccc4[nH]3)n2)cc(OC)c1OC`: the IC50 was < 0.4 µg/mL.

Regarding `COc1ccc(Nc2ncnc(NCc3c(C)cccc3Cl)n2)cc1OC`, the IC50 was > 4.5 µg/mL.

For `COC(=O)c1ccc(-c2cc(Nc3ncnc(NCCN4CCOCC4)n3)[nH]n2)cc1`, the IC50 was 2.4 to 3.5 µg/mL (≈ 5.65 to 8.25 µM).

`COc1cc(Nc2ncnc(Nc3ccc4nn(C)cc4c3)n2)cc(OC)c1OC` had an IC50 of 0.4 to 2.4 µg/mL (≈ 0.982 to 5.89 µM).

Regarding `COc1cc(Nc2ncnc(-c3cccnc3Nc3ccc(Cl)cc3C)n2)cc(OC)c1OC`, the IC50 is > 4.5 µg/mL.

On to `COCCNc1ncnc(Nc2cc(-c3ccc(C(=O)OC)cc3)n[nH]2)n1`, for which the IC50 was > 4.5 µg/mL.

`COc1cc(Nc2ncnc(-c3cccnc3Nc3cccc(Oc4ccccc4)c3)n2)cc(OC)c1OC`: the IC50 is > 4.5 µg/mL.

Take `COC(=O)c1ccc(-c2cc(Nc3ncnc(NCCCO)n3)[nH]n2)cc1`: the IC50 was > 4.5 µg/mL.

As to `C=CCNc1cc(-c2ncnc(Nc3cc(OC)c(OC)c(OC)c3)n2)ccn1`, the IC50 is > 4.5 µg/mL.

With `CN1CCN(Cc2cccc(Nc3ncnc(Nc4ccc5c(cnn5Cc5ccccc5)c4)n3)c2)CC1`, the IC50 was > 4.5 µg/mL.

In the case of `COc1ccc(CCNc2ncnc(N3CCCc4cc(C)ccc43)n2)cc1OC`, the IC50 was > 4.5 µg/mL.

In the case of `COc1cc(Nc2ncnc(-n3c(NCc4cccc(C)c4)nc4ccccc43)n2)cc(OC)c1OC`, the half-inhibitory concentration (IC50) is > 4.5 µg/mL.

As to `COc1ccc(CNc2ncccc2-c2ncnc(Nc3cc(OC)c(OC)c(OC)c3)n2)cc1`, the IC50 was > 4.5 µg/mL.

In the case of `CC(C)(C)OC(=O)Nc1ccc(Nc2ncnc(-c3ccccc3)n2)cc1`, the IC50 was > 4.5 µg/mL.

As for `O=c1[nH]c2ccccc2n1-c1ncnc(Nc2ccccc2Cl)n1`, the IC50 is 0.4 to 2.4 µg/mL (≈ 1.18 to 7.08 µM).

For the compound `Nc1nc2ccccc2n1-c1ncnc(Nc2ccccn2)n1`, the IC50 was > 4.5 µg/mL.

For `c1ccc(Cn2ncc3cc(Nc4ncnc(NCCN5CCCC5)n4)ccc32)cc1`, the IC50 is > 4.5 µg/mL.

`COc1cc(Nc2nc3ccccc3n2-c2ncnc(Nc3cc(OC)c(OC)c(OC)c3)n2)cc(OC)c1`: the IC50 was > 4.5 µg/mL.

As for `COc1cc(Nc2ncnc(Nc3cccc4ccccc34)n2)cc(OC)c1OCCN1CCOCC1`, the IC50 is < 0.4 µg/mL.

As to `c1ccc(COc2cccc(Nc3ncnc(-c4cccs4)n3)c2)cc1`, the IC50 was > 4.5 µg/mL.

Regarding `COc1cc(Nc2ncnc(-c3cccs3)n2)cc(OC)c1OC`, the IC50 was > 4.5 µg/mL.

Consider `COc1cc(Nc2ncnc(Nc3ccccc3)n2)cc(OC)c1OC`, for which the IC50 was 0.4 to 2.4 µg/mL (≈ 1.13 to 6.79 µM).

For `COc1cc(Nc2ncnc(-n3c(NC(C)c4ccc(F)cc4)nc4ccccc43)n2)cc(OC)c1OC` (configuration not stated), the IC50 is > 4.5 µg/mL.

As for `COc1cc(Nc2ncnc(N3CCN(c4ccccn4)CC3)n2)cc(OC)c1OC`, the IC50 is > 4.5 µg/mL.

For `COc1cc(Nc2ncnc(Nc3ccc(N)cc3)n2)cc(OC)c1OC`, the IC50 was in the range of 0.4 to 2.4 µg/mL (≈ 1.09 to 6.51 µM).

In the case of `COc1ccc(Nc2ncnc(Nc3ccc(C)c(O)c3)n2)cc1OC`, the IC50 was < 0.4 µg/mL.

Consider `COc1cc(Nc2ncnc(N[C@@H](CO)c3ccccc3)n2)cc(OC)c1OC`, for which the IC50 was > 4.5 µg/mL.

As for `COCCOc1ccc(Nc2ncnc(Nc3ccc(C)c(O)c3)n2)cc1OCCOC`, the IC50 was 0.4 to 2.4 µg/mL (≈ 0.906 to 5.44 µM).
